US9938286B2, “Nalmefene salts as medicaments for reducing alcohol consumption or for preventing excessive alcohol consumption” (H. Lundbeck A/S, priority 2013, dated 2018)
Where a name gives a salt, the structure may show the parent alone. Read-outs that look alike come from different tables or passages of the source.

Key:
[1] = Dynamic vapour sorption (DVS), water absorption; format: physicochemical
Experimental: Dynamic vapour sorption experiments were performed using a SMS DVS advantage 01 changing the relative humidity from 30-40% RH up to 90-95% RH in steps of 10%RH.

[2] = Attempt to form hydrates: precipitation from pure water, XRPD of precipitate; format: physicochemical; conditions: precipitated from pure water at room temperature and atmospheric pressure
Text: A “hydrate” indicates a crystalline material with water (H2O) molecules incorporated into the crystal lattice. More particularly, a “non-hydrate forming salt” of nalmefene indicates a salt of which any isolated crystal form contains less than 25 mol % water, such as less than 20 mol % water, such as less than 15 mol % water, such as less than 10 mol % water, such as less than 5 mol % water, such as less than 4, 3, 2 or 1 mol % water, such as substantially no water in the crystal lattice of said salt.

[3] = Attempt to form solvates: precipitation from organic solvents, XRPD of precipitate; format: physicochemical; conditions: for solvate formation from the organic solvents assessed: EtOH, MeOH, IPA, EtOAc, acetone, ACN, THF, MIBK, toluene and 2.2.2-trifluoroethanol, room temperature, atmospheric pressure; for solvate formation from EtOH: precipitated from EtOH
Text: A “solvate” indicates a crystalline material with solvent molecules incorporated into the crystal lattice. In the present context, when referring to “solvents” these are limited to non-aqueous solvents, preferably organic solvents. Solvents assessed for solvate formation according to the invention includes the following: ethanol (EtOH), methanol (MeOH), isopropanol (IPA), ethyl acetate (EtOAc), acetone, acetonitrile (ACN), tetrahydrofurane (THF), methyl isobutyl ketone (MIBK), toluene and 2,2,2-trifluoroethanol.
The clear supernatant was diluted and assayed by HPLC. All precipitates were analyzed by XRPD.

[4] = Thermodynamic aqueous solubility in pure water (shaking, HPLC); conditions: for pH: aqueous solubility sample in pure water; for pH / Solubility (mg base/mL), aqueous: 23° C. ± 2°; for Solubility (mg base/mL), aqueous: pure water, normalised to nalmefene free base
[5] = Solubility in organic solvents (HPLC); conditions: 23° C. ± 2°
Experimental: The suspensions were heated with the purpose of obtaining complete dissolution and then cooled to room temperature and left for equilibrium to be attained. The clear supernatant was diluted and assayed by HPLC. All precipitates were analyzed by XRPD.
For comparison, the solvate formation from nalmefene hydrochloride was also investigated.

[6] = Brittain 1996, WO 2010/063292, cited from earlier work
[7] = precipitated/crystallized from ethanol, Brittain 1996, cited from earlier work
μ receptor = μ receptor (Homo sapiens, UniProt P35372); conditions: in vitro studies; cited from earlier work
δ receptor = δ receptor (Homo sapiens, UniProt P41143); conditions: in vitro studies; cited from earlier work
κ receptor = κ receptor (Homo sapiens, UniProt P41145); conditions: in vitro studies; cited from earlier work
κ receptor, sequence (P41145 whole entry): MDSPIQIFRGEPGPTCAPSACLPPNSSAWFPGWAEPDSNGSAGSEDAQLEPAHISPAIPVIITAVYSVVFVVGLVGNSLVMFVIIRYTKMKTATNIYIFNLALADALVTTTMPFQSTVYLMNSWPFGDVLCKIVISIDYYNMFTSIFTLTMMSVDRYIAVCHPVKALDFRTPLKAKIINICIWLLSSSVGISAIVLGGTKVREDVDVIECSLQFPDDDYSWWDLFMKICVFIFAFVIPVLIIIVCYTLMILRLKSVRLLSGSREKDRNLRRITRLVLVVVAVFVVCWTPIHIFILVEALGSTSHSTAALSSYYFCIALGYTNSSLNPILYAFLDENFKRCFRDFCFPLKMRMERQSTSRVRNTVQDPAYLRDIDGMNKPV

μ receptor, sequence (P35372 whole entry): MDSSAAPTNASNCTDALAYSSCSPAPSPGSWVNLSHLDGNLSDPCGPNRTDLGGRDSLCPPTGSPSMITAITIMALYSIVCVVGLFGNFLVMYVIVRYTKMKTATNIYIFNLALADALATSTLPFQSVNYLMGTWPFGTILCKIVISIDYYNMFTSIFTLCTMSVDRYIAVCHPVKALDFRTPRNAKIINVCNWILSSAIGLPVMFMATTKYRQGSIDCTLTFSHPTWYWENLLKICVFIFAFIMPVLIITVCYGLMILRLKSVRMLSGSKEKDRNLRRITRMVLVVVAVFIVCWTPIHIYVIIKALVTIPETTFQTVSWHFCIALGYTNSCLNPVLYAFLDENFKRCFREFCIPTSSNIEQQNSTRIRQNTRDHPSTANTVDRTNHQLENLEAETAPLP
δ receptor, sequence (P41143 whole entry): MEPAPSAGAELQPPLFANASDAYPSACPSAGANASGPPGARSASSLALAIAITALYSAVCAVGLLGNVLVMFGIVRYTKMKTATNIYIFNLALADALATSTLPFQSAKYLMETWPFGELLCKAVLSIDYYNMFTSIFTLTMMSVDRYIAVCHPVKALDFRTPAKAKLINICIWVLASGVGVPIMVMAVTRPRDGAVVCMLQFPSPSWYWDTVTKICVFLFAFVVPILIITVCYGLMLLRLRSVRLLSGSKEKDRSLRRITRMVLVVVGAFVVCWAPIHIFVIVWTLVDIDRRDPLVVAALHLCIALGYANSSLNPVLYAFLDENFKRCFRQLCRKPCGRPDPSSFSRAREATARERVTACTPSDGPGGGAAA

For `C=C1CC[C@@]2(O)[C@H]3Cc4ccc(O)c5c4[C@@]2(CCN3CC2CC2)[C@H]1O5.O=C(O)/C=C/C(=O)O`, the “% abs. at 90% RH (water absorption determined by DVS)” value (“% abs. at 90% RH” for short) [1] was 0.6%, the hydrate formation [2] was “not to form hydrates” and the “solvate formation from 2,2,2-trifluoroethanol” value ([3]; precipitated from 2,2,2-trifluoroethanol) was “formed solvate”.
With `C=C1CC[C@@]2(O)[C@H]3Cc4ccc(O)c5c4[C@@]2(CCN3CC2CC2)[C@H]1O5.O=C(O)CCCCC(=O)O` the “% abs. at 90% RH” value [1] was 0.35%, the hydrate formation [2] was “not to form hydrates” and the “solvate formation from the organic solvents assessed” value [3] was “No solvates were formed”.
In the case of `C=C1CC[C@@]2(O)[C@H]3Cc4ccc(O)c5c4[C@@]2(CCN3CC2CC2)[C@H]1O5.O=C(O)CC(=O)O`, the “% abs. at 90% RH” value [1] is reported as 0.35%, the hydrate formation [2] is reported as “not to form hydrates” and the “solvate formation from MeOH” value ([3]; precipitated from MeOH) is reported as “formed solvate”.
In the case of `C1=Cc2cccc(OC[C@H]3CNCCO3)c2C1.O=S(=O)(O)c1ccccc1` [Benzene sulfonate], the “% abs. at 90% RH” value [1] is reported as under 0.2%, the hydrate formation [2] is reported as “not to form hydrates” and the “solvate formation from EtOH” value [3] is reported as “solvate”. The “solvate formation from EtOH” value ([3]; listed as benzene sulfonate salt) was “formed solvate”, the “solvate formation from THF” value ([3]; precipitated from THF) was “formed solvate” and the pH [4] was 3.12.
In the case of `C=C1CC[C@@]2(O)[C@H]3Cc4ccc(O)c5c4[C@@]2(CCN3CC2CC2)[C@H]1O5.O=C(O)/C=C\C(=O)O` [Hydrogen maleate], the “% abs. at 90% RH” value [1] is reported as 0.2%, the hydrate formation [2] is reported as “not to form hydrates” and the “solvate formation from the organic solvents assessed” value [3] is reported as “No solvates were formed”.
In the case of `O=C(O)c1ccccc1O` [Salicylate], the “% abs. at 90% RH” value [1] is reported as 0.4%, the hydrate formation [2] is reported as “not to form hydrates” and the “Solubility in 2,2,2-trifluoro-EtOH” value ([5]; 2,2,2-trifluoroethanol, * = precipitated as solvate) is reported as 120 mg base/mL. The “Solubility in ACN” value ([5]; ACN) was 8.2 mg base/mL, the “Solubility in EtOAc” value ([5]; EtOAc) was 2.0 mg base/mL and the “Solubility in EtOH” value ([5]; EtOH, * = precipitated as solvate) was 19 mg base/mL. The “Solubility in IPA” value ([5]; IPA, * = precipitated as solvate) was 0.5* mg base/mL, the “Solubility in MIBK” value ([5]; MIBK) was 2.9 mg base/mL and the “Solubility in MeOH” value ([5]; MeOH, * = precipitated as solvate) was 91 mg base/mL. The “Solubility in THF” value ([5]; THF) was 35 mg base/mL, the Solubility in acetone ([5]; acetone) was 9.7 mg base/mL and the “solvate formation from IPA” value ([3]; precipitated from IPA) was “formed solvate”. The pH [4] was 7.14, the “Solubility (mg base/mL), aqueous” value [4] was 3.0 mg base/mL and the “Solubility (mg base/mL), aqueous” value ([4]; listed as salicylate salt) was 3 mg base/mL.
For `C=C1CC[C@@]2(O)[C@H]3Cc4ccc(O)c5c4[C@@]2(CCN3CC2CC2)[C@H]1O5` [nalmefene hydrochloride], the “solvate formation from the organic solvents assessed” value ([3]; listed as hydrochloride salt) is given as “formed solvate from all the organic solvents”, the “hydrate formation / thermodynamically stable form (literature)” value ([6]; listed as HCl salt of nalmefene) is given as “only thermodynamically stable in hydrated or solvated form” and the “hydrate formation / thermodynamically stable form (literature)” value ([6]; listed as nalmefene hydrochloride salt) is given as “hydrate-forming salt”. For the same molecule, the “solvate formation from ethanol (literature)” value [7] was “form solvate”, the “solvate formation from ethanol (literature)” value ([7]; listed as Nalmefene hydrochloride) was “ethanol solvate” and the “aqueous solubility of the known hydrochloride salt” value ([4]; unpublished data) was 109 mg base/mL.
For `C=C1CC[C@@]2(O)[C@H]3Cc4ccc(O)c5c4[C@@]2(CCN3CC2CC2)[C@H]1O5` [nalmefene, 17-(cyclopropylmethyl)-4,5-alpha-epoxy-6-methylenemorphinan-3,14-diol], the “activity at the μ receptor” value (μ receptor) is listed as “antagonist activity”, the “activity at the δ receptor” value (δ receptor) is listed as “antagonist activity” and the “activity at the κ receptor” value (κ receptor) is listed as “partial agonist activity”.
With L-lactate the “% abs. at 90% RH” value [1] was 1.2%, the hydrate formation [2] was “corresponds to a monohydrate” and the “solvate formation from the organic solvents assessed” value [3] was “No solvates were formed”.
